{"source": "patent US20230142090A1", "about": "(priority 2020, published 2023)", "key": {"hilA expression": {"system": "hilA expression", "assay_type": "cell-based"}, "[1]": {"system": "cholera toxin genes ctxAB", "assay_type": "cell-based, Vibrio cholerae C6706 EI Tor strain"}, "[2]": {"system": "HEp-2 cell invasion by Salmonella", "assay_type": "cell-based"}, "HilC": {"molecular_target": "T1, HilC (Salmonella typhimurium, UniProt P0CL09)", "T1 sequence (P0CL09 1-295)": "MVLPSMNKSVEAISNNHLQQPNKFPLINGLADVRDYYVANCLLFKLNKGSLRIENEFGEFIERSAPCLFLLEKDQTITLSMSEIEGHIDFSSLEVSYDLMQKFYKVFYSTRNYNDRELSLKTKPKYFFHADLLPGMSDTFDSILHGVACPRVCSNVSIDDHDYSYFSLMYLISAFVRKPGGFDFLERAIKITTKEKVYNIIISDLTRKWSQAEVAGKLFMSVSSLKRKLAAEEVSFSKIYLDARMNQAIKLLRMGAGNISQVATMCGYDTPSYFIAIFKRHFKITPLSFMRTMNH", "assay_type": "binding"}, "sopB expression": {"system": "sopB expression", "assay_type": "cell-based"}, "HilD [3]": {"molecular_target": "T2, HilD (Salmonella typhimurium, UniProt P0CL08)", "T2 construct": "6×His-NusA (followed by HRV 3C protease site) (N, cleaved yes); made in house; host or cells: E. coli BL21(DE3)", "T2 sequence (P0CL08 1-309)": "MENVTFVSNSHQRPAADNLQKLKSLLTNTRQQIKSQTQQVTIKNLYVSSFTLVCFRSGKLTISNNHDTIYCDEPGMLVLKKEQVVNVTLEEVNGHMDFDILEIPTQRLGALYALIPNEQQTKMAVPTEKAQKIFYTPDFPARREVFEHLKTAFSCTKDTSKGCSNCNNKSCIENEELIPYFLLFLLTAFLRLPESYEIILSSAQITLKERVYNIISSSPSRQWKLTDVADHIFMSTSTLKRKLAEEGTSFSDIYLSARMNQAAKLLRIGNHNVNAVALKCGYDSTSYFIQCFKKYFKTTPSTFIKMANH", "assay_type": "binding"}, "[4]": {"system": "toxin co-regulated pili gene (tcpA)", "assay_type": "cell-based, Vibrio cholerae"}, "[5]": {"system": "Salmonella SPI1 expression (sicA-GFP)", "set-up": "species or system C57BL/6 mice", "conditions": "mouse, in vivo"}, "Salmonella": {"system": "Salmonella", "assay_type": "cell-based"}, "HilD [6]": {"molecular_target": "HilD (Salmonella typhimurium, UniProt P0CL08)", "assay_type": "cell-based"}, "cholera toxin": {"system": "cholera toxin", "assay_type": "cell-based, V. cholerae Haiti and N16961"}, "RtsA": {"system": "RtsA", "assay_type": "binding, Salmonella"}, "[7]": {"conditions": "hilC and rtsA deleted, hilD under tetracycline-inducible promoter, 20 μM (FIG. 4C)"}}, "note": "Entries after “also recorded” stand apart in the source; their conditions may differ. Where two headings read alike, the source gives them in different places.", "data": [{"smiles": "CC(C)CCCCCCC/C=C\\C(=O)O", "note": "[cis-11-methyl-2-dodecenoic acid]", "values": [{"measurement": "potency in repressing invasion genes relative to c2-HDA", "setting": "hilA expression", "result": "less potent in repressing invasion genes than c2-HDA"}]}, {"smiles": "CCCCCCCCC/C=C\\C(=O)O", "note": "[cis-2-dodecenoic acid, (Z)-dodec-2-enoic acid]", "values": [{"measurement": "potency in repressing invasion genes relative to c2-HDA", "setting": "hilA expression", "result": "less potent in repressing invasion genes than c2-HDA"}, {"measurement": "reduction of hilA expression, chain length comparison", "setting": "hilA expression; FIG. 1F", "result": 3, "unit": "fold"}]}, {"smiles": "O=C(O)CCCN1C(=O)c2cccc3cccc(c23)C1=O", "note": "[virstatin, reference compound]", "values": [{"measurement": "repression of ctxAB", "setting": "[1]", "result": 1.2, "unit": "fold"}]}, {"smiles": "CCCCCCCCCCCCCCCC(=O)O", "note": "[palmitic acid, reference compound]", "values": [{"measurement": "repression of ctxAB", "setting": "[1]", "result": "no repressive effects"}]}, {"smiles": "CCCCCCCCCCCCC/C=C/C(=O)O", "note": "[trans-2-hexadecenoic acid, reference compound]", "values": [{"measurement": "fold less potent in repressing hilA than the cis-isomer", "setting": "hilA expression; 20 μM fatty acids (FIG. 1A)", "result": 31, "unit": "fold"}]}, {"smiles": "CCCCCCCCCCCCCCCCC/C=C\\C(=O)O", "note": "[cis-2-eicosenoic acid, (Z)-icos-2-enoic acid]", "values": [{"measurement": "reduction of hilA expression, chain length comparison", "setting": "hilA expression; FIG. 1F", "result": 10, "unit": "fold"}, {"measurement": "repression of hilA in the presence of hilD only", "setting": "hilA expression; [7]", "result": 3, "unit": "fold"}]}, {"smiles": "CCCCCCCCCCCCCCCCC/C=C\\C(=O)OC", "note": "[cis-2-eicosenoic acid methyl ester]", "values": [{"measurement": "repression of hilA expression by methyl ester", "setting": "hilA expression", "result": "not to significantly repress hilA expression"}]}, {"smiles": "CCCCCCCC/C=C\\CCCCCCCC(=O)O", "note": "[oleic acid, cis-9-octadecenoic acid, reference compound]", "values": [{"measurement": "decrease of invasion of HEp-2 cells compared to untreated cultures", "setting": "[2]; overnight growth with 20 μM compound", "result": 70, "unit": "%"}, {"measurement": "repression of hilA expression", "setting": "hilA expression; 5 μM, hilA::luxCDABE, wild type (FIG. 1A)", "result": 1.3, "unit": "fold"}, {"measurement": "repression of hilA in the presence of hilD only", "setting": "hilA expression; [7]", "result": 1.2, "unit": "fold"}, {"measurement": "repression of ctxAB", "setting": "[1]", "result": 1.3, "unit": "fold"}]}, {"smiles": "CCCCCCC/C=C\\C(=O)O", "note": "[cis-2-decenoic acid, (Z)-dec-2-enoic acid]", "values": [{"measurement": "reduction of hilA expression, chain length comparison", "setting": "hilA expression; FIG. 1F", "result": 28, "unit": "%"}]}, {"smiles": "CCCCCCCCCCCCC/C=C\\C(=O)O", "note": "[c2-HDA, (Z)-hexadec-2-enoic acid]", "values": [{"measurement": "binding of HilC to the hilA promoter", "setting": "HilC", "result": "preventing binding; also recorded: partially inhibited binding; also recorded: prevented binding; also recorded: did so partially"}, {"measurement": "inhibition of sopB expression in Δlon and ΔhilE mutants", "setting": "sopB expression", "result": "inhibited sopB expression in these mutants to the level observed in the wild type strain"}, {"measurement": "repression of sopB", "setting": "sopB expression", "result": 11, "unit": "fold"}, {"measurement": "repression of sopB expression", "setting": "sopB expression", "result": 68, "unit": "fold"}, {"measurement": "binding of HilD to the hilA promoter", "setting": "HilD [3]", "result": "prevented the binding; also recorded: partially inhibited binding; also recorded: completely inhibited; also recorded: did so partially"}, {"measurement": "expression of tcpA", "setting": "[4]", "result": "represses expression"}, {"measurement": "decrease of invasion of HEp-2 cells compared to untreated cultures", "setting": "[2]", "result": 78, "unit": "%"}, {"measurement": "reduction of the percentage of bacteria expressing SPI1 in the caecum", "setting": "[5]", "result": 2, "unit": "fold"}, {"measurement": "effect on bacterial growth", "setting": "Salmonella", "result": "did not impair bacterial growth"}, {"measurement": "inhibition of hilA expression", "setting": "hilA expression", "result": 39, "unit": "%"}, {"measurement": "less potent in repressing hilA compared to the wild type", "setting": "hilA expression", "result": 39, "unit": "%"}, {"measurement": "reduction of hilA expression in the presence of only hilC", "setting": "hilA expression", "result": 20, "unit": "fold"}, {"measurement": "reduction of hilA expression in the presence of only rtsA", "setting": "hilA expression", "result": 13, "unit": "fold"}, {"measurement": "reduction of hilA expression, chain length comparison", "setting": "hilA expression", "result": 159, "unit": "fold"}, {"measurement": "repression of hilA expression in the absence of Lon", "setting": "hilA expression", "result": "continued to repress hilA expression"}, {"measurement": "repression of hilA in the presence of hilD only", "setting": "hilA expression", "result": 78, "unit": "fold"}, {"measurement": "effect on HilD stability in the absence of Lon", "setting": "HilD [6]", "result": "no effect on its stability"}, {"measurement": "cholera toxin secretion / toxin amounts in the culture media", "setting": "cholera toxin", "result": "reduced; also recorded: reduces cholera toxin secretion"}, {"measurement": "concentrations at which effects on virulence gene expression were apparent", "setting": "[1]", "result": "≥ 5", "unit": "µM"}, {"measurement": "repression of ctxAB", "setting": "[1]", "result": 20, "unit": "fold"}, {"measurement": "repression of virulence gene expression compared to Virstatin", "setting": "[1]", "result": "repressed much more efficiently"}, {"measurement": "binding of RtsA to the hilA promoter", "setting": "RtsA", "result": "preventing binding; also recorded: partially inhibited binding; also recorded: prevented binding; also recorded: did so partially"}]}, {"smiles": "CCCCCCCCCCCCC/C=C\\C(=O)OC", "note": "[cis-2-hexadecenoic acid methyl ester]", "values": [{"measurement": "repression of hilA expression by methyl ester", "setting": "hilA expression", "result": "not to significantly repress hilA expression"}]}]}
